According to US9732094B2, “Arylquinazolines” (Merck Patent GmbH, priority 2013, dated 2017):
Like-named read-outs stand apart in the source and are kept apart here.

Key:
DNA-PK = DNA-PK (Homo sapiens (Human), UniProt P78527); experiment: DNA-PK assay (biochemical), flashplate 33P-ATP kinase assay
Description: A) DNA-PK Assay (Biochemical)
The kinase assay was carried out in streptavidin-coated […] microtitre flashplates. […] The reaction was stopped using 50 μl/well of 200 mM EDTA. After incubation for a further 30 min at room temperature, the liquid was removed. Each well was washed three times with 100 μl of 0.9% saline solution. A nonspecific reaction (blank value) was determined using 10 μM of an innate kinase inhibitor. The radioactivity measurement was carried out using a TopCount. IC50 values were calculated in RS1.

[1] = biological target: DNA-PK phosphorylation at serine 2056 (Homo sapiens (Human), UniProt P78527); experiment: DNA-PK phosphorylation at serine 2056 (cellular), bleomycin-treated HCT116 cells, ELISA; assay type: cell-based; details: read-out: IC50 pDNA-PK
Description: HCT116 cells were cultivated at 37° C. and 10% CO2 in MEM alpha medium with 10% of foetal calf serum and 2 mM glutamine. The cells were detached from the base of the culture vessels with the aid of trypsin/EDTA, centrifuged off in centrifuge tubes, taken up in fresh medium, and the cell density was determined. 100,000 cells were sown in 1 ml of culture medium per cavity of a 24-well cell culture plate and cultivated overnight. Next day, 10 μM bleomycin (DNA intercalator and inductor of DNA double-strand breaks) and test substances in fresh culture medium were added to the cells, and these were cultivated for a further six hours. […] The 96-well ELISA plates were subsequently treated with a detection antibody (Abcam ab79444: total DNA-PK) and a streptavidin-HRP conjugate. The development of the enzymatic reaction was carried out with the aid of a chemiluminescent reagent, the chemiluminescence was measured with the aid of a Mithras LB940. The signals with the phospho-DNA-PK-specific antibody were standardised to the signal with the antibody against the total protein DNA-PKc. […] The DMSO control was used as blank.

Kv11.1 (hERG) = Kv11.1 (hERG) (Homo sapiens (Human), UniProt Q12809); experiment: Kv11.1 (hERG) ion channel activity (patch clamp assay), HEK293 cells transfected with hERG gene
Sequence of Kv11.1 (hERG) (Q12809 whole entry): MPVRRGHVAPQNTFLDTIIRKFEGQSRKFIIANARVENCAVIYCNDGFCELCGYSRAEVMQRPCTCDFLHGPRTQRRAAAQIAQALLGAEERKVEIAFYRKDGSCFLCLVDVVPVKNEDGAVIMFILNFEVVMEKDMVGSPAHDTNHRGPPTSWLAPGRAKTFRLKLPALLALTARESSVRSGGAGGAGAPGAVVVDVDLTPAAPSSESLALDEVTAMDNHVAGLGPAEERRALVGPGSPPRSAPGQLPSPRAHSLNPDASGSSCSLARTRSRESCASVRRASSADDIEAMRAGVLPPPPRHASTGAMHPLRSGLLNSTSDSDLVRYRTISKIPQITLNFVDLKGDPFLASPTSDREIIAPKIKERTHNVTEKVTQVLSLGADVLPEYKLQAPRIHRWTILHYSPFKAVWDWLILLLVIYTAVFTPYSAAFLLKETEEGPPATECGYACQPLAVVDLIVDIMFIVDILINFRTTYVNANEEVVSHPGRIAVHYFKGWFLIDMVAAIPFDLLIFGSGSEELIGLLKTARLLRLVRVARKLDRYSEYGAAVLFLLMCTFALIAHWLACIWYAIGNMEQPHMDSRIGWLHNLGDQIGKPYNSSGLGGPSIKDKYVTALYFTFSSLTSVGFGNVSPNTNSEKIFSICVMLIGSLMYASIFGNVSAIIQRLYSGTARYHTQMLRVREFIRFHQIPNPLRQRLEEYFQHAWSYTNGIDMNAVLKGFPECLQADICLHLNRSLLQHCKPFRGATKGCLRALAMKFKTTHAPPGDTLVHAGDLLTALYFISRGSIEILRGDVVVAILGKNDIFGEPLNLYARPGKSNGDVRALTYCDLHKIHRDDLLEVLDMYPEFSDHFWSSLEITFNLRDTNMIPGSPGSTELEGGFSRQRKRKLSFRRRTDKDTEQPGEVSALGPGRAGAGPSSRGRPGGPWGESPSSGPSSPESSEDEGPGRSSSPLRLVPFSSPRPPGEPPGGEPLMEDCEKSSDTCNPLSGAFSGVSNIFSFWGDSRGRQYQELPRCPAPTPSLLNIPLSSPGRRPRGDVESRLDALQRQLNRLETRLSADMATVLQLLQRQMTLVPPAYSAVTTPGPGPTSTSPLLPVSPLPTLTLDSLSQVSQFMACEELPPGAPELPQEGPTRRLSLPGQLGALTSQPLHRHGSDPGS

[2] = cellular DNA-PK phosphorylation at serine 2056, HCT116
[3] = Ki [Kv1.11 hERG], hERG patch clamp assay (cells without asterisk)
[4] = cellular, HCT116 cells, 10 μM bleomycin, six hours
[5] = Ki [Kv1.11 hERG], patch clamp, HEK293 transfected with hERG gene
[6] = read-out: Ki [Kv1.11 hERG], hERG patch clamp assay (cells without asterisk)

IC50 (DNA-PK; biochemical DNA-PK assay) | IC50 [1, 2] | Structure (SMILES) | Ki (Kv11.1 (hERG); [3]) | Ki (Kv11.1 (hERG); [6]) | other results
 |  | OC(c1cccnc1)c1cc(-c2ncnc3cc(N4CCOCC4)ccc23)c(F)cc1F (stereo not drawn) [Example 217, [2,4-Difluoro-5-(7-morpholin-4-ylquinazolin-4-yl)phenyl]pyridin-3-ylmethanol] |  |  | IC50 (DNA-PK; Table 7): 0.003 to 0.007 µM; IC50 ([1]; Table 7, HCT116 cells): < 0.5 µM; Ki (Kv11.1 (hERG); read-out: Ki [Kv1.11 hERG], Table 7): > 25 µM
 |  | OC(c1cnc(F)c(-c2ncnc3cc(N4CCOCC4)ccc23)c1)c1nccs1 (stereo not drawn) [Example 189, [6-Fluoro-5-(7-morpholin-4-yl-quinazolin-4-yl)-pyridin-3-yl]thiazol-2-ylmethanol] |  |  | IC50 (DNA-PK; Table 5): 0.003 to 0.007 µM; IC50 ([1]; Table 5, HCT116 cells): 0.5 to 5 µM; Ki (Kv11.1 (hERG); Ki [Kv1.11 hERG], Table 5): 15 to 25 µM
< 0.003 µM | 0.5 to 5 µM | OC(c1cc(-c2ncnc3cc(N4CCOCC4)ccc23)ccc1F)c1ncnc2ccoc12 (stereo not drawn) [Example 374, [2-Fluoro-5-(7-morpholin-4-yl-quinazolin-4-yl)-phenyl]furo[3,2-d}-pyrimidin-4-yl-methanol] | 15 to 25 µM |  | 
 |  | O=c1[nH]ccnc1C(O)c1ccc(F)c(-c2ncnc3cc(N4CCOCC4)ccc23)c1 (stereo not drawn) [Example 5, 3-{[4-Fluoro-3-(7-morpholin-4-yl-quinazolin-4-yl)phenyl]-hydroxymethyl]-1H-pyrazin-2-one] |  |  | IC50 (DNA-PK; enzymatic, 5 μM ATP): > 0.03 µM; IC50 [1, 4]: 10 to 30 µM; Ki (Kv11.1 (hERG); [5]): 15 to 25 µM
 |  | N#Cc1ccc(C(O)c2cc(-c3ncnc4cc(N5CCOCC5)ccc34)c(F)cc2Cl)nn1 (stereo not drawn) [Example 118, 6-{[2-Chloro-4-fluoro-5-{7-morpholin-4-yl-quinazolin-4-yl)-phenyl]hydroxy-methyl}pyridazine-3-carbonitrile] |  |  | IC50 (DNA-PK; enzymatic, 5 μM ATP): 0.003 to 0.007 µM; IC50 [1, 4]: 0.5 to 5 µM; Ki (Kv11.1 (hERG); [5]): 15 to 25 µM
 |  | OC(c1cc(-c2ncnc3cc(N4CCOCC4)ccc23)ccc1Cl)c1ncnc2ccsc12 (stereo not drawn) [Example 89, [2-Chloro-5-(7-morpholin-4-yl-quinazolin-4-yl)-phenyl]thieno[3,2-d}-pyrimidin-4-ylmethanol] |  |  | IC50 (DNA-PK; enzymatic, 5 μM ATP): 0.003 to 0.007 µM; IC50 [1, 4]: < 0.5 µM; Ki (Kv11.1 (hERG); [5]): 10 to 15 µM
< 0.003 µM | < 0.5 µM | OC(c1ccc(F)c(-c2ncnc3cc(N4CCOCC4)ccc23)c1)c1ncccc1Cl (stereo not drawn) [Example 465, (3-Chloro-pyridin-2-yl)-[4-fluoro-3-(7-morpholin-4-yl-quinazolin-4-yl)-phenyl]methanol] | 15 to 25 µM |  | 
0.007 to 0.03 µM | 0.5 to 5 µM | OC(c1cc(-c2ncnc3cc(N4CCOCC4)ccc23)ccc1F)c1nccn2ccnc12 (stereo not drawn) [Example 372, [2-Fluoro-5-(7-morpholin-4-yl-quinazolin-4-yl)-phenyl]imidazo-[1,2-a]pyrazin-8-yl-methanol] |  | > 25 µM | 
 |  | OC(c1ccc2nccn2n1)c1cc(-c2ncnc3cc(N4CCOCC4)ccc23)c(F)cc1Cl (stereo not drawn) [Example 63, [2-Chloro-4-fluoro-5-(7-morpholin-4-yl-quinazolin-4-yl)phenyl]-imidazo[1,2-b]pyridazin-6-ylmethanol] |  |  | IC50 (DNA-PK; enzymatic, 5 μM ATP): < 0.003 µM; IC50 [1, 4]: 0.5 to 5 µM; Ki (Kv11.1 (hERG); read-out: Ki [Kv1.11 hERG], patch clamp, HEK293 transfected with hERG gene): 10 to 15 µM
0.007 to 0.03 µM | 0.5 to 5 µM | Cn1cnc2ncnc(C(O)c3ccc(F)c(-c4ncnc5cc(N6CCOCC6)ccc45)c3)c21 (stereo not drawn) [Example 433, [4-Fluoro-3-(7-morpholin-4-yl-quinazolin-4-yl)-phenyl]-(7-methyl-7H-purin-6-yl)-methanol] |  | > 25 µM | 
0.007 to 0.03 µM | 5 to 10 µM | Cn1c(C(O)c2cc(-c3ncnc4cc(N5CCOCC5)ccc34)ccc2Cl)cccc1=O (single isomer, unassigned) [Example 363, 6-{[2-Chloro-5-(7-morpholin-4-yl-quinazolin-4-yl)-phenyl]hydroxy-methyl}-1-methyl-1H-pyridin-2-one] | 15 to 25 µM |  | 
 |  | OCc1csc(C(O)c2cc(-c3ncnc4cc(N5CCOCC5)ncc34)c(F)cc2Cl)n1 (stereo not drawn) [Example 141, [2-chloro-4-fluoro-5-(7-morpholin-4-ylpyrido[4,3-d]pyrimidin-4-yl)phenyl]-(4-hydroxymethylthiazol-2-yl)methanol] |  |  | IC50 (DNA-PK; Table 5): > 0.03 µM; IC50 ([1]; Table 5, HCT116 cells): 10 to 30 µM; Ki (Kv11.1 (hERG); Ki [Kv1.11 hERG], Table 5): 15 to 25 µM
0.007 to 0.03 µM | 0.5 to 5 µM | OC(c1ccc(F)c(-c2ncnc3cc(N4CCOCC4)ccc23)c1)c1ncnc2c1CCNC2 (stereo not drawn) [Example 388, [4-Fluoro-3-(7-morpholin-4-yl-quinazolin-4-yl)-phenyl]-(5,6,7,8-tetrahydropyrido-[3,4-d}pyrimidin-4-yl)-methanol] | 10 to 15 µM |  | 
> 0.03 µM | 10 to 30 µM | CN1CCN(c2nccnc2C(O)c2ccc(F)c(-c3ncnc4cc(N5CCOCC5)ccc34)c2)C1=O (stereo not drawn) [Example 424, 1-(3-{[4-Fluoro-3-(7-morpholin-4-yl-quinazolin-4-yl)-phenyl]hydroxy-methyl}pyrazin-2-yl)-3-methyl-imidazolidin-2-one] |  | > 25 µM | 
0.003 to 0.007 µM | 0.5 to 5 µM | OC(c1cc(-c2ncnc3cc(N4CCOCC4)ccc23)ccc1F)c1cccc2nncn12 (stereo not drawn) [Example 373, [2-Fluoro-5-(7-morpholin-4-yl-quinazolin-4-yl)-phenyl]-[1,2,4]-triazolo[4,3-a]pyridin-5-ylmethanol] | 15 to 25 µM |  | 
0.003 to 0.007 µM | < 0.5 µM | OC(c1ccc(F)c(-c2ncnc3cc(N4CCOCC4)ccc23)c1)c1nccnc1C(F)(F)F (stereo not drawn) [Example 476, [4-Fluoro-3-(7-morpholin-4-yl-quinazolin-4-yl)-phenyl]-(3-trifluoro-methylpyrazin-2-yl)-methanol] |  | > 25 µM | 
< 0.003 µM | < 0.5 µM | OC(c1cc(-c2ncnc3cc(N4CCOCC4)ccc23)c(F)cc1Cl)c1ncnc2ccoc12 (stereo not drawn) [Example 452, [2-Chloro-4-fluoro-5-(7-morpholin-4-yl-quinazolin-4-yl)-phenyl]furo[3,2-d}-pyrimidin-4-yl-methanol] | 10 to 15 µM |  | 
0.003 to 0.007 µM | 0.5 to 5 µM | OC(c1cc(-c2ncnc3cc(N4CCOCC4)ccc23)ccc1Cl)c1ncncc1F (stereo not drawn) [Example 390, [2-Chloro-5-(7-morpholin-4-yl-quinazolin-4-yl)-phenyl]-(5-fluoro-pyrimidin-4-yl)-methanol] | 15 to 25 µM |  | 
> 0.03 µM | 10 to 30 µM | NC(=O)C(c1cc(-c2ncnc3cc(N4CCOCC4)ccc23)ccc1Cl)c1nccnc1Cl (stereo not drawn) [Example 315, 2-[2-Chloro-5-(7-morpholin-4-yl-quinazolin-4-yl)-phenyl]-2-(3-chloro-pyrazin-2-yl)-acetamide] | 10 to 15 µM |  | 
< 0.003 µM | 0.5 to 5 µM | Cn1c(C(O)c2cc(-c3ncnc4cc(N5CCOCC5)ccc34)c(F)cc2F)cccc1=O (stereo not drawn) [Example 381, 6-{[2,4-Difluoro-5-(7-morpholin-4-yl-quinazolin-4-yl)-phenyl]hydroxy-methyl}-1-methyl-1H-pyridin-2-one] |  | > 25 µM | 

Structure (SMILES) | IC50 (DNA-PK; biochemical DNA-PK assay) | IC50 [1, 2] | Ki (Kv11.1 (hERG); [3]) | Ki (Kv11.1 (hERG); [6]) | other results
OC(c1cc(-c2ncnc3cc(N4CCOCC4)ccc23)c(F)cc1F)c1ncnc2c1CCNC2 (stereo not drawn) [Example 387, [2,4-Difluoro-5-(7-morpholin-4-yl-quinazolin-4-yl)-phenyl]-(5,6,7,8-tetrahydropyrido-[3,4-d}pyrimidin-4-yl)-methanol] | 0.007 to 0.03 µM | 0.5 to 5 µM | 15 to 25 µM |  | 
OC(c1cc(-c2ncnc3cc(N4CCOCC4)ccc23)c(F)cc1F)c1nccnc1OC(F)F (stereo not drawn) [Example 449, (3-Difluoromethoxy-pyrazin-2-yl)-[2,4-difluoro-5-(7-morpholin-4-yl-quinazolin-4-yl)-phenyl]methanol] | < 0.003 µM | 0.5 to 5 µM |  | > 25 µM | 
COc1ccc(C(O)c2cc(-c3ncnc4cc(N5CCOCC5)ccc34)ccc2F)nn1 (stereo not drawn) [Example 357, [2-Fluoro-5-(7-morpholin-4-yl-quinazolin-4-yl)-phenyl]-(6-methoxy-pyridazin-3-yl)-methanol] | 0.003 to 0.007 µM | 0.5 to 5 µM |  | > 25 µM | 
NC(=O)C(c1ccc(F)c(-c2ncnc3cc(N4CCOCC4)ccc23)c1)c1c(F)cncc1F (stereo not drawn) [Example 321, 2-(3,5-Difluoro-pyridin-4-yl)-2-[4-fluoro-3-(7-morpholin-4-yl-quinazolin-4-yl)-phenyl]acetamide] | 0.007 to 0.03 µM | 0.5 to 5 µM | 15 to 25 µM |  | 
COc1nccnc1C(O)c1cc(-c2ncnc3cc(N4CCOCC4)ccc23)ccc1Cl (stereo not drawn) [Example 410, [2-Chloro-5-(7-morpholin-4-yl-quinazolin-4-yl)-phenyl]-(3-methoxy-pyrazin-2-yl)-methanol] | < 0.003 µM | < 0.5 µM |  | < 10 µM | 
